{"source": "paper PMC12457078", "about": "“Inhibition of soluble epoxide hydrolase in endotoxin induced pig lung injury” (Frontiers in Pharmacology, 2025)", "system": "sEH", "assay": "oxylipin analysis, epoxide/diol ratios (target engagement)", "assay_type": "in vivo, pig", "design": "14,15-DiHETE: unit not given beside the values; 12,13-DiHOME / 9,10-DiHODE / 11,12-DiHETrE / 14,15-DiHETrE / 10,11-DiHDPE / 19,20-DiHDPE / 13-HODE / 5-HETE / 11-HETE / 12-HETE / 5-HEPE / 9(10)-EpOME / 12(13)-EpOME / EKODE / 11(12)-EpETE: unit not given here", "details": "for 14,15-DiHETE: high blanks", "procedure": "All animals were monitored with pulse oximetry, heart rate, ECG, systemic arterial blood pressure (ABP), pulmonary arterial pressure (PAP), central venous pressure (CVP) temperature, tidal volumes, respiratory rate and end tidal carbon dioxide. At baseline, and at 3 h, 6 h and at the end of the experiment, pulmonary capillary wedge pressure (PCWP) was measured together with arterial and venous blood gas analyses, as well as cardiac output calculations. Routine chemistry, including creatinine, bilirubin, glucose, electrolytes were collected at baseline and at the end of the experiment (Vetscan VS2®, Abaxis, Griesheim, Germany). Blood samples for measurement of AEPU plasma concentrations, as well as oxylipins (i.e., EpETrEs and their DiHETrE corresponding diols as well as related compounds with other polyunsaturated fatty acid precursors), were collected at baseline, 6 h and at the end of the experiment.\nThis meant nine subjects in each group to achieve 90% power of detecting a difference of this size given α = 0.05. Anticipating that not all experiments would reach completion, we used a sample size of 22. The results were analyzed using SPSS Statistics, version 24 (IBM Corp., Armonk, N.Y., United States). Normality was examined with the Shapiro-Wilk test, together with examination of histograms of data. Continuous variables were compared using Student’s t-test or Mann Whitney U test, as appropriate. Categorical variables were compared using Fischer’s exact test. Statistical significance was set at α < 0.05. Oxylipins with at least 80% of observations above limit of detection at both timepoints were included in pairwise comparisons of ratios and fold-change evaluations where observations below limit of detection (LOD) were substituted with 0.5 x LOD.", "key": {"[1]": {"details": "animal 20, time 6, sample Schwein36"}, "[2]": {"details": "animal 22, time 0, sample Schwein37"}, "[3]": {"details": "animal 22, time 6, sample Schwein38"}}}
{"smiles": "CCOCCOCCOCCCCCNC(=O)NC12CC3CC(CC(C3)C1)C2", "note": "[sEH-i]", "values": [{"measurement": "15-HEPE", "setting": "[1]", "result": "<LOD"}, {"measurement": "15-HETE", "setting": "[1]", "result": 0.23}, {"measurement": "15-HETrE", "setting": "[1]", "result": 0.10}, {"measurement": "15-oxo-ETE", "setting": "[1]", "result": 0.0224}, {"measurement": "16(17)-EpDPE", "setting": "[1]", "result": "<LOD"}, {"measurement": "16,17-DiHDPE", "setting": "[1]", "result": 0.0373}, {"measurement": "17(18)-EpETE", "setting": "[1]", "result": "<LOD"}, {"measurement": "17,18-DiHETE", "setting": "[1]", "result": 0.77}, {"measurement": "17-HDoHE", "setting": "[1]", "result": "<LOD"}, {"measurement": "19(20)-EpDPE", "setting": "[1]", "result": "<LOD"}, {"measurement": "19,20-DiHDPE", "setting": "[1]", "result": 0.44}, {"measurement": "20-HETE", "setting": "[1]", "result": 0.0531}, {"measurement": "EKODE", "setting": "[1]", "result": 0.20}, {"measurement": "LTB4", "setting": "[1]", "result": 0.26}, {"measurement": "PGD2", "setting": "[1]", "result": "<LOD"}, {"measurement": "PGE2", "setting": "[1]", "result": "<LOD"}, {"measurement": "PGF2a", "setting": "[1]", "result": 0.69}, {"measurement": "Resolvin D1", "setting": "[1]", "result": "<LOD"}, {"measurement": "Resolvin D2", "setting": "[1]", "result": "<LOD"}, {"measurement": "TXB2", "setting": "[1]", "result": 2.57}, {"measurement": "14,15-DiHETE", "setting": "[1]", "result": 0.2599}, {"measurement": "5(6)-EpETrE", "setting": "[2]", "result": "<LOD"}, {"measurement": "5,6-DiHETrE", "setting": "[2]", "result": "<LOD"}, {"measurement": "5-HEPE", "setting": "[2]", "result": 0.21}, {"measurement": "5-HETE", "setting": "[2]", "result": 0.81}, {"measurement": "5-oxo-ETE", "setting": "[2]", "result": 0.30}, {"measurement": "7(8)-EpDPE", "setting": "[2]", "result": "<LOD"}, {"measurement": "7,8-DiHDPE", "setting": "[2]", "result": "<LOD"}, {"measurement": "8(9)-EpETE", "setting": "[2]", "result": "<LOD"}, {"measurement": "8(9)-EpETrE", "setting": "[2]", "result": "<LOD"}, {"measurement": "8,9-DiHETE", "setting": "[2]", "result": 0.0568}, {"measurement": "8,9-DiHETrE", "setting": "[2]", "result": 0.11}, {"measurement": "8-HETE", "setting": "[2]", "result": 0.16}, {"measurement": "9(10)-EpODE", "setting": "[2]", "result": 0.39}, {"measurement": "9(10)-EpOME", "setting": "[2]", "result": 1.58}, {"measurement": "9,10,13-TriHOME", "setting": "[2]", "result": 8.76}, {"measurement": "9,10-DiHODE", "setting": "[2]", "result": 0.80}, {"measurement": "9,10-DiHOME", "setting": "[2]", "result": 5.53}, {"measurement": "9,12,13-TriHOME", "setting": "[2]", "result": 1.91}, {"measurement": "9-HETE", "setting": "[2]", "result": "<LOD"}, {"measurement": "9-HODE", "setting": "[2]", "result": 22.28}, {"measurement": "9-HOTrE", "setting": "[2]", "result": 2.15}, {"measurement": "9-oxo-ODE", "setting": "[2]", "result": "<LOD"}, {"measurement": "10(11)-EpDPE", "setting": "[2]", "result": "<LOD"}, {"measurement": "10,11-DiHDPE", "setting": "[2]", "result": 0.12}, {"measurement": "11(12)-EpETE", "setting": "[2]", "result": 0.09412}, {"measurement": "11(12)-EpETrE", "setting": "[2]", "result": 0.09}, {"measurement": "11,12-DiHETE", "setting": "[2]", "result": 0.09}, {"measurement": "11,12-DiHETrE", "setting": "[2]", "result": 1.52}, {"measurement": "11-HETE", "setting": "[2]", "result": 0.33}, {"measurement": "12(13)-EpODE", "setting": "[2]", "result": 0.93}, {"measurement": "12(13)-EpOME", "setting": "[2]", "result": 3.18}, {"measurement": "12,13-DiHODE", "setting": "[2]", "result": 1.66}, {"measurement": "12,13-DiHOME", "setting": "[2]", "result": 19.80}, {"measurement": "12-HEPE", "setting": "[2]", "result": 0.0755}, {"measurement": "12-HETE", "setting": "[2]", "result": 0.69}, {"measurement": "12-oxo-ETE", "setting": "[2]", "result": 4.85}, {"measurement": "13(14)-EpDPE", "setting": "[2]", "result": "<LOD"}, {"measurement": "13,14-DiHDPE", "setting": "[2]", "result": 0.22}, {"measurement": "13-HODE", "setting": "[2]", "result": 80.31}, {"measurement": "13-HOTrE", "setting": "[2]", "result": 4.84}, {"measurement": "13-oxo-ODE", "setting": "[2]", "result": 6.02}, {"measurement": "14(15)-EpETE", "setting": "[2]", "result": "<LOD"}, {"measurement": "14(15)-EpETrE", "setting": "[2]", "result": 0.11}, {"measurement": "14,15-DiHETrE", "setting": "[2]", "result": 3.44}, {"measurement": "15(16)-EpODE", "setting": "[2]", "result": 36.18}, {"measurement": "15,16-DiHODE", "setting": "[2]", "result": 74.86}, {"measurement": "15-HEPE", "setting": "[2]", "result": "<LOD"}, {"measurement": "15-HETE", "setting": "[2]", "result": 0.58}, {"measurement": "15-HETrE", "setting": "[2]", "result": 0.39}, {"measurement": "15-oxo-ETE", "setting": "[2]", "result": 0.15}, {"measurement": "16(17)-EpDPE", "setting": "[2]", "result": "<LOD"}, {"measurement": "16,17-DiHDPE", "setting": "[2]", "result": 0.63}, {"measurement": "17(18)-EpETE", "setting": "[2]", "result": "<LOD"}, {"measurement": "17,18-DiHETE", "setting": "[2]", "result": 3.51}, {"measurement": "17-HDoHE", "setting": "[2]", "result": 0.47}, {"measurement": "19(20)-EpDPE", "setting": "[2]", "result": 0.29}, {"measurement": "19,20-DiHDPE", "setting": "[2]", "result": 4.63}, {"measurement": "20-HETE", "setting": "[2]", "result": 0.35}, {"measurement": "EKODE", "setting": "[2]", "result": 0.67}, {"measurement": "LTB4", "setting": "[2]", "result": "<LOD"}, {"measurement": "PGD2", "setting": "[2]", "result": 0.04}, {"measurement": "PGE2", "setting": "[2]", "result": 0.0328}, {"measurement": "PGF2a", "setting": "[2]", "result": 0.19}, {"measurement": "Resolvin D1", "setting": "[2]", "result": "<LOD"}, {"measurement": "Resolvin D2", "setting": "[2]", "result": "<LOD"}, {"measurement": "TXB2", "setting": "[2]", "result": 0.22}, {"measurement": "14,15-DiHETE", "setting": "[2]", "result": 0.2458}, {"measurement": "5(6)-EpETrE", "setting": "[3]", "result": "<LOD"}, {"measurement": "5,6-DiHETrE", "setting": "[3]", "result": "<LOD"}, {"measurement": "5-HEPE", "setting": "[3]", "result": 0.03}, {"measurement": "5-HETE", "setting": "[3]", "result": 0.2075}, {"measurement": "5-oxo-ETE", "setting": "[3]", "result": 0.12}, {"measurement": "7(8)-EpDPE", "setting": "[3]", "result": "<LOD"}, {"measurement": "7,8-DiHDPE", "setting": "[3]", "result": "<LOD"}, {"measurement": "8(9)-EpETE", "setting": "[3]", "result": "<LOD"}]}
